Data reported in the supplement of paper PMC10307832.

Key:
Assay in all cases: relative viability (nuclei count vs DMSO), 5 days (fraction); higher = more cells survive
[1] = compound: C[C@@H](N)c1ccc(C(=O)Nc2ccnc3[nH]ccc23)cc1 + Cc1nc(NC(=O)N2CCC[C@H]2C(N)=O)sc1-c1ccnc(C(C)(C)C(F)(F)F)c1 [Alpelisib] (partner 2 µM)
Method in brief: (§1)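 Each reported value is a median over duplicate plates. It expresses relative viability: treated-well nuclei count divided by vehicle-well nuclei count. Lung cancer cell lines in 1536-well plates were dosed by pin tool a day after seeding, alone with one drug or with a fixed anchor-drug dose plus five library-drug doses (not always all listed) in √10 steps, and nuclei were counted after 5 days.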

[2] = compound: C[C@@H](N)c1ccc(C(=O)Nc2ccnc3[nH]ccc23)cc1 + Nc1ncn([C@H]2C[C@H](O)[C@@H](CO)O2)c(=O)n1 [Decitabine] (partner 2 µM)
Method in brief: as §1

Tanzisertib + Vorinostat = compound: O[C@H]1CC[C@H](Nc2ncc3nc(Nc4c(F)cc(F)cc4F)n([C@H]4CCOC4)c3n2)CC1 [Tanzisertib] + O=C(CCCCCCC(=O)Nc1ccccc1)NO [Vorinostat] (partner 1 µM)
Method in brief: as §1

[3] = compound: O[C@H]1CC[C@H](Nc2ncc3nc(Nc4c(F)cc(F)cc4F)n([C@H]4CCOC4)c3n2)CC1 [Tanzisertib] + CC(=O)c1c(C)c2cnc(Nc3ccc(N4CCNCC4)cn3)nc2n(C2CCCC2)c1=O [Palbociclib] (partner 0.5 µM)
Method in brief: as §1

| Cell Line | relative viability ([1]; first compound 0.04 µM) | relative viability ([1]; first compound 0.1265 µM) | relative viability ([1]; first compound 0.4 µM) | relative viability ([1]; first compound 4 µM) | relative viability ([2]; first compound 0.04 µM) | relative viability ([2]; first compound 0.1265 µM) | relative viability ([2]; first compound 0.4 µM) | relative viability ([2]; first compound 1.265 µM) | relative viability ([2]; first compound 4 µM) | relative viability (Tanzisertib + Vorinostat; first compound 0.08 µM) | relative viability (Tanzisertib + Vorinostat; first compound 0.253 µM) | relative viability (Tanzisertib + Vorinostat; first compound 0.8 µM) | relative viability (Tanzisertib + Vorinostat; first compound 2.53 µM) | relative viability (Tanzisertib + Vorinostat; first compound 8 µM) | relative viability ([3]; first compound 0.08 µM) | relative viability ([3]; first compound 0.253 µM) | relative viability ([3]; first compound 0.8 µM) | relative viability ([3]; first compound 2.53 µM) | relative viability ([3]; first compound 8 µM) | relative viability ([1]; first compound 1.265 µM) |
| --- | --- | --- | --- | --- | --- | --- | --- | --- | --- | --- | --- | --- | --- | --- | --- | --- | --- | --- | --- | --- |
| NCI-H1355 | 0.885 | 0.833 | 0.919 | 0.746 | 0.343 | 0.332 | 0.317 | 0.306 | 0.322 | 0.722 | 0.608 | 0.642 | 0.67 | 0.628 | 0.435 | 0.398 | 0.4 | 0.438 | 0.382 | – |
| EKVX | 0.897 | 0.95 | 0.887 | 0.748 | 0.385 | 0.331 | 0.358 | 0.329 | 0.385 | 0.711 | 0.691 | 0.852 | 0.741 | 0.676 | 0.455 | 0.388 | 0.363 | 0.414 | 0.355 | 0.895 |
| NCI-H441 | 0.715 | 0.602 | 0.641 | 0.919 | 0.276 | 0.279 | 0.225 | 0.258 | 0.238 | 0.895 | 0.854 | 0.731 | 0.72 | 0.804 | 0.236 | 0.224 | 0.241 | 0.194 | 0.154 | 0.669 |
| NCI-H1975 | 0.692 | 0.593 | 0.553 | 0.534 | 0.365 | 0.381 | 0.426 | 0.356 | 0.28 | 0.743 | 0.761 | 0.71 | 0.704 | 0.656 | 0.735 | 0.575 | 0.515 | 0.562 | 0.549 | 0.617 |
| HCC-78 | 0.505 | 0.354 | 0.483 | 0.33 | 0.772 | 0.782 | 0.83 | 0.725 | 0.62 | 0.505 | 0.455 | 0.461 | 0.403 | 0.447 | 0.405 | 0.474 | 0.488 | 0.514 | 0.472 | 0.577 |
| NCI-H2085 | 1 | 0.923 | 0.925 | 0.966 | 0.528 | 0.573 | 0.742 | 0.561 | 0.521 | – | 0.801 | 0.917 | 0.828 | 0.879 | – | 0.456 | 0.454 | 0.455 | 0.505 | 0.936 |
| H3255 | 0.774 | 0.742 | 0.806 | 0.673 | 0.603 | 0.747 | 0.67 | 0.67 | 0.481 | 0.818 | 0.938 | 0.787 | 0.721 | 0.345 | 0.297 | 0.301 | 0.327 | 0.336 | 0.31 | 0.716 |
| NCI-H2087 | 0.897 | 0.855 | 0.803 | 0.495 | 0.293 | 0.325 | 0.357 | 0.362 | 0.31 | 0.862 | 0.701 | 0.772 | 0.797 | 1.14 | 0.256 | 0.308 | 0.254 | 0.235 | 0.255 | 0.844 |
| LC-2-ad | 0.894 | 0.862 | 0.807 | 0.61 | 0.935 | 0.775 | 0.827 | 0.775 | 0.563 | 0.731 | 0.69 | 0.702 | 0.715 | 0.493 | 0.484 | 0.548 | 0.471 | 0.441 | 0.502 | 0.843 |
| PC-3 [JPC-3] | 1.1 | 1.09 | 1.03 | 0.866 | 0.776 | 0.807 | 0.857 | 0.824 | 0.625 | 0.835 | 1.18 | 1.04 | 0.748 | 0.445 | 0.539 | 0.53 | 0.576 | 0.521 | 0.571 | 1.12 |
| EBC-1 | 0.97 | 0.775 | 0.797 | 0.93 | – | – | – | – | – | – | – | – | – | – | – | – | – | – | – | 0.771 |
| HCC-15 | 0.969 | 0.871 | 0.996 | 0.917 | 0.698 | 0.613 | 0.623 | 0.612 | 0.514 | 0.91 | 0.766 | 0.857 | 0.807 | 0.923 | 0.794 | 0.73 | 0.737 | 0.752 | 0.713 | – |
| NCI-H1563 | 0.958 | 0.995 | 0.985 | 0.918 | – | – | – | – | – | – | – | – | – | – | – | – | – | – | – | 0.971 |
| COR-L 105 | 0.876 | 1.07 | 0.918 | 0.65 | 0.651 | 0.674 | 0.627 | 0.495 | 0.526 | 0.834 | 0.893 | 0.828 | 0.903 | 1 | 0.411 | 0.4 | 0.407 | 0.417 | 0.39 | 0.957 |
| NCI-H520 | 0.971 | 0.969 | 1.21 | 1.07 | 0.579 | 0.552 | 0.61 | 0.617 | 0.569 | 0.866 | 0.749 | 0.789 | 0.724 | 0.73 | 0.274 | 0.201 | 0.227 | 0.227 | 0.239 | 1.12 |
| LU99A | 0.554 | 0.554 | 0.562 | 0.52 | – | 1.03 | 0.824 | 0.773 | 0.598 | 0.565 | 0.447 | 0.51 | 0.559 | 0.519 | 0.405 | 0.377 | 0.378 | 0.399 | 0.389 | 0.545 |
| NCI-H1666 | 0.973 | 1.12 | 1.18 | 1.16 | 0.83 | 0.768 | 0.865 | 0.781 | 0.855 | 1.03 | 0.988 | 1.11 | 1.01 | 1.05 | 0.675 | 0.729 | 0.65 | 0.688 | 0.639 | 1.36 |
| NCI-H2170 | 0.879 | 0.436 | 0.765 | 0.627 | 0.497 | 0.467 | 0.489 | 0.517 | 0.429 | 0.806 | 0.864 | 0.874 | 0.82 | 0.705 | 0.415 | 0.39 | 0.36 | 0.428 | 0.406 | 0.833 |
